Columns and labels:
[1] = tested on: erythroid burst-forming cells; settings: in vitro; cited from earlier work
[2] = tested on: human immunodifficiency virus reverse transcriptase; settings: cited from earlier work
[3] = tested on: granulocyte macrophage colony forming cells; settings: in vitro; cited from earlier work
[4] = Weekly body weight of treated mice; assay type: in vivo, Female Balb/c mice; settings: measured each week
Description: (§1) Female Balb/c mice, 6-12 weeks old, were purchased from the Animal Care Facility of the Roger Williams Cancer Center. The animals were randomly divided into eight groups. Six of the treatment protocols were performed in duplicate. Each group contained either eight or nine animals. The animals were weighed once weekly. Food and water was available ad libitum. Blood samples were obtained from the tail vein. The first blood sample was obtained on Day 0 and subsequent samples were obtained on Days 19, 27, 34 and 44, 48, 54 and 68 after the initiation of drug treatment. With each sampling, approximately 100 ul of blood was removed from each animal. The blood obtained from the animals in each group was pooled and analyzed by Coulter Counter. On each sample, hemoglobin, hematocrit, and white blood cell count were determined. The mean red cell volume was calculated. The Treatment Groups were as follows:
Body weights of the animals in the treatment groups were measured each week.

[5] = Blood counts (hemoglobin, hematocrit, white blood cells) in mice receiving AZT, BAU and/or DPR; pooled blood, Coulter Counter; assay type: in vivo, Female Balb/c mice; set-up: Hb (hemoglobin) / Hct (hematocrit): unit not given here
Description: For oral administration, BAU was dissolved in water to achieve a final concentration of 0.3 mg/mL. For intraperitoneal administration, BAU was dissolved in dimethylsulfoxide (DMSO) to achieve final concentrations of 60, 100, or 120 mg/mL.
The solution was centrifuged at 15,000 rpm for 20 minutes.
as §1
DMSO was given ip, 0.O1 mL/5 grams body weight, once weekly.
Group 4--BAU 240 mg/kg, ip, once weekly.
This corresponds to a daily administered dose of 43 mg/kg.
The concentration was 0.69 mg/ml which corresponds to an administered dose of 100 mg/kg/day.

[6] = tested on: uridine phosphorylase; settings: cited from earlier work
[7] = Oral bioavailability of BAU; settings: in vivo, 43 mg/kg, drinking water, read-out: bioavailability of BAU administered orally
Description: Group 7--AZT administered in the drinking water (1 mg/mL) and BAU administered in the same container of drinking water (0.3 mg/mL). This corresponds to a daily administered dose of 43 mg/kg. The bioavailability of BAU administered orally was 80%. Therefore, the bioavailable dose of BAU administered to this group was 240 mg/kg/week.

[8] = tested on: human bone marrow progenitor (HBMP) cells; settings: in vitro; cited from earlier work
[9] = human, in vivo; cited from earlier work
[10] = Day 0, AZT 1 mg/mL and/or DPR 0.69 mg/mL in drinking water, no BAU (Groups 3, 8, 9)
[11] = Day 0, AZT 1 mg/mL in drinking water (145 mg/kg/day) + DMSO ip once weekly (Group 2)
[12] = Day 19, AZT 1 mg/mL and/or DPR 0.69 mg/mL in drinking water, no BAU (Groups 3, 8, 9)
[13] = Day 19, AZT 1 mg/mL in drinking water (145 mg/kg/day) + DMSO ip once weekly (Group 2)
[14] = Day 27, AZT 1 mg/mL and/or DPR 0.69 mg/mL in drinking water, no BAU (Groups 3, 8, 9)
[15] = Day 27, AZT 1 mg/mL in drinking water (145 mg/kg/day) + DMSO ip once weekly (Group 2)
[16] = Day 34, AZT 1 mg/mL and/or DPR 0.69 mg/mL in drinking water, no BAU (Groups 3, 8, 9)
[17] = Day 34, AZT 1 mg/mL in drinking water (145 mg/kg/day) + DMSO ip once weekly (Group 2)
[18] = Day 48, AZT 1 mg/mL in drinking water (145 mg/kg/day) + DMSO ip once weekly (Group 2)
[19] = Day 48, AZT 1 mg/mL in drinking water (Group 3)
[20] = Day 0, BAU 240 mg/kg ip once weekly, without (Group 4) or with (Group 5) AZT 1 mg/mL in drinking water
[21] = Day 19, BAU 240 mg/kg ip once weekly, without (Group 4) or with (Group 5) AZT 1 mg/mL in drinking water
[22] = Day 27, BAU 240 mg/kg ip once weekly, without (Group 4) or with (Group 5) AZT 1 mg/mL in drinking water
[23] = Day 34, BAU 240 mg/kg ip once weekly, without (Group 4) or with (Group 5) AZT 1 mg/mL in drinking water
[24] = Day 48, BAU 240 mg/kg ip once weekly, without (Group 4) or with (Group 5) AZT 1 mg/mL in drinking water
[25] = Day 44, DPR 0.69 mg/mL with or without AZT 1 mg/mL in drinking water (Groups 8, 9)
[26] = Day 54, DPR 0.69 mg/mL with or without AZT 1 mg/mL in drinking water (Groups 8, 9)
[27] = Day 68, DPR 0.69 mg/mL with or without AZT 1 mg/mL in drinking water (Groups 8, 9)

SMILES: Cc1cn([C@H]2C[C@H](N=[N+]=[N-])[C@@H](CO)O2)c(=O)[nH]c1=O [AZT, 3'-Azido-3'-deoxythymidine]
- inhibition of erythroid burst-forming cells [1]: consistently inhibit granulocyte macrophage colony forming cells and erythroid burst-forming cells in dose-dependent fashion
- inhibition of HIV reverse transcriptase [2]: inhibits the human immunodifficiency virus reverse transcriptase
- inhibition of granulocyte macrophage colony forming cells [3]: consistently inhibit granulocyte macrophage colony forming cells and erythroid burst-forming cells in dose-dependent fashion
- body weight over time [4]: tended to lose weight as their anemia increased over time
- Hb (hemoglobin) [5, 10]: 17.3
- Hct (hematocrit) [5, 10]: 43.0
- WBC (white blood cell count) [5, 10]: 8.4
- Hb (hemoglobin) [5, 11]: 17.3
- Hct (hematocrit) [5, 11]: 49.0
- WBC (white blood cell count) [5, 11]: 10.1
- Hb (hemoglobin) [5, 12]: 13.7
- Hct (hematocrit) [5, 12]: 43.0
- Hb (hemoglobin) [5, 13]: 12.8
- Hct (hematocrit) [5, 13]: 36.0
- WBC (white blood cell count) [5, 13]: 21.2
- Hb (hemoglobin) [5, 14]: 13.6
- Hct (hematocrit) [5, 14]: 43
- WBC (white blood cell count) [5, 14]: 13.6
- Hb (hemoglobin) [5, 15]: 13
- Hct (hematocrit) [5, 15]: 40
- WBC (white blood cell count) [5, 15]: 11.6
- Hb (hemoglobin) [5, 16]: 13.9
- Hct (hematocrit) [5, 16]: 42
- WBC (white blood cell count) [5, 16]: 13.3
- Hb (hemoglobin) [5, 17]: 11.6
- Hct (hematocrit) [5, 17]: 35
- WBC (white blood cell count) [5, 17]: 11.5
- Hb (hemoglobin) [5, 18]: 11.0
- Hct (hematocrit) [5, 18]: 33
- WBC (white blood cell count) [5, 18]: 5.0
- Hb (hemoglobin) [5, 19]: 13.2
- Hct (hematocrit) [5, 19]: 34
- WBC (white blood cell count) [5, 19]: 5.6
- nature of anemia produced in mice ([5]; mice): typical of AZT induced anemia in humans

SMILES: O=c1[nH]c(=O)n(COCCO)cc1Cc1ccccc1 [BAU, 5-benzylacyclouridine]
- inhibition of cleavage of 5-fluoro-2'-deoxyuridine [6]: inhibits the cleavage of the antineoplastic 5-fluoro-2'-deoxyuridine
- inhibition of uridine phosphorylase ([6]; cleavage of uridine to uracil): inhibitor of the enzyme uridine phosphorylase
- bioavailability [7]: 80%
- Hb (hemoglobin) [5, 20]: 18.3
- Hct (hematocrit) [5, 20]: 52.0
- WBC (white blood cell count) [5, 20]: 8.8
- Hb (hemoglobin) [5, 21]: 17.3
- Hct (hematocrit) [5, 21]: 50.0
- WBC (white blood cell count) [5, 21]: 10.8
- Hb (hemoglobin) [5, 22]: 16.2
- Hct (hematocrit) [5, 22]: 51
- WBC (white blood cell count) [5, 22]: 6.6
- Hb (hemoglobin) [5, 23]: 17.2
- Hct (hematocrit) [5, 23]: 50
- WBC (white blood cell count) [5, 23]: 7.9
- Hb (hemoglobin) [5, 24]: 16.6
- Hct (hematocrit) [5, 24]: 49
- WBC (white blood cell count) [5, 24]: 6.4

SMILES: OCCN(CCO)c1nc(N2CCCCC2)c2nc(N(CCO)CCO)nc(N3CCCCC3)c2n1 [DPR, 2,2',2"2'"-(4,8-dipiperidinopyimidol[5,4-d]pyrimidene-2,6-diyldinitrilo) tetraethanol]
- Hb (hemoglobin) [5, 10]: 16.5
- Hct (hematocrit) [5, 10]: 48.0
- WBC (white blood cell count) [5, 10]: 5.9
- Hb (hemoglobin) [5, 12]: 14.3
- Hct (hematocrit) [5, 12]: 49
- WBC (white blood cell count) [5, 12]: 11.1
- Hb (hemoglobin) [5, 14]: 15.5
- Hct (hematocrit) [5, 14]: 45
- WBC (white blood cell count) [5, 14]: 10
- Hb (hemoglobin) [5, 16]: 14.8
- Hct (hematocrit) [5, 16]: 45
- WBC (white blood cell count) [5, 16]: 9.4
- Hb (hemoglobin) [5, 25]: 14.6
- Hct (hematocrit) [5, 25]: 45
- WBC (white blood cell count) [5, 25]: 9.1
- Hb (hemoglobin) [5, 26]: 15.4
- Hct (hematocrit) [5, 26]: 46
- WBC (white blood cell count) [5, 26]: 7.6
- Hb (hemoglobin) [5, 27]: 15.7
- Hct (hematocrit) [5, 27]: 45
- WBC (white blood cell count) [5, 27]: 9.3

SMILES: Nc1ccn([C@@H]2O[C@H](CO)[C@@H](O)[C@H]2O)c(=O)n1 [cytidine]
- reversal of toxic effect of AZT in HBMP cells [8]: could reverse the toxic effect of AZT in HBMP cells

SMILES: O=c1ccn([C@@H]2O[C@H](CO)[C@@H](O)[C@H]2O)c(=O)[nH]1 [uridine]
- body temperature [9]: rapid and potentially dangerous rises in body temperature
- elimination from the plasma [9]: rapidly eliminated from the plasma
- reversal of toxic effect of AZT in HBMP cells [8]: could reverse the toxic effect of AZT in HBMP cells

Reference: patent US4950466A, “Reduction of the severity of 3'-azido-3'-deoxythymidine-induced anemia using a combination of benzylacyclouridine and dipyridamole” (priority 1988, dated 1990)
